According to the Kinase Knowledgebase extract (Sharma et al. 2016):

molecular target: PIK3CG (human) (UniProt P48736); assay: Assessment of PIK3CG Kinase Activity
Sequence (P48736 whole entry, looked up): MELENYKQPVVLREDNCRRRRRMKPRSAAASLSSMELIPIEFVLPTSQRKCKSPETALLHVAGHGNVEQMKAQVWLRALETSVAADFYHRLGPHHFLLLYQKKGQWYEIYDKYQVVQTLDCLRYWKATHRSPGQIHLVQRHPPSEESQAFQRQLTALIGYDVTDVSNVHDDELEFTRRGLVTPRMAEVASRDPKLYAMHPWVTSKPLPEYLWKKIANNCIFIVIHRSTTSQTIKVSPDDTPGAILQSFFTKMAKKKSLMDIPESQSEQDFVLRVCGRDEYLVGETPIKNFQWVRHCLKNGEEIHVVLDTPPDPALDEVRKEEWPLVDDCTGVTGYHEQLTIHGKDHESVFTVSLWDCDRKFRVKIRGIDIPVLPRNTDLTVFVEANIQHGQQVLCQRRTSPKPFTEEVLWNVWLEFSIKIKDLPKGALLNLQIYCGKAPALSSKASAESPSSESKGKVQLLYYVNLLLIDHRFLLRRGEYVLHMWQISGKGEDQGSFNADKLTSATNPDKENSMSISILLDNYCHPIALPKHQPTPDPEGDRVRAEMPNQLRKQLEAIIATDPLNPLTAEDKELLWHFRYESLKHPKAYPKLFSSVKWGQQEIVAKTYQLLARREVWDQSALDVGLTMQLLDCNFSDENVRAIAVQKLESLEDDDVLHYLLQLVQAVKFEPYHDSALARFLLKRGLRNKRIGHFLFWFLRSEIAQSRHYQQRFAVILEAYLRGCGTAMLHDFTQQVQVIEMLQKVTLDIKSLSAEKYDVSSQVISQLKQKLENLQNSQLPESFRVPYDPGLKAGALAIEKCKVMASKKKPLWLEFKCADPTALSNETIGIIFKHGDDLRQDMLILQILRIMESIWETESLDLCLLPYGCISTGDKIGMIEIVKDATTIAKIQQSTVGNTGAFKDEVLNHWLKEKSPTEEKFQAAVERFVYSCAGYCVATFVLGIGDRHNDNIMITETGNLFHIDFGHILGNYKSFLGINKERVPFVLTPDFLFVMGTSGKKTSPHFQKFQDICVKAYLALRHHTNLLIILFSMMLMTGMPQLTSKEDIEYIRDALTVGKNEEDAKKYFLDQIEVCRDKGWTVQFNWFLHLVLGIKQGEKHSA

Row | Compound | IC50 [nM]
1 | CC(C)c1cccc(CNC(=O)Nc2nc3c(s2)-c2c(c(-c4cccnc4)nn2-c2ccccc2Cl)CC3)c1 | < 800
2 | CN1CCN(CCCNC(=O)Nc2nc3c(s2)-c2c(c(-c4cncnc4)nn2-c2ccccc2Cl)CC3)CC1 | < 800
3 | CCc1cnc(CCNC(=O)Nc2nc3c(s2)-c2c(c(C4CC4)nn2-c2ccccc2Cl)CC3)o1 | < 800
4 | C[C@@H](NC(=O)Nc1nc2c(s1)-c1c(c(-c3ccccc3)nn1-c1ccccc1Cl)CC2)C(=O)N1CCOCC1 | < 800
5 | CN(C)CCNC(=O)Nc1nc2c(s1)-c1c(c(-c3cncnc3)nn1-c1ccccc1Cl)CC2 | < 800
6 | CC(C)c1noc(CCNC(=O)Nc2nc3c(s2)-c2c(c(-c4cncnc4)nn2-c2ccccc2Cl)CC3)n1 | < 800
7 | CC(C)(C)OC(=O)CCNC(=O)Nc1nc2c(s1)-c1c(c(-c3cccnc3)nn1-c1ccccc1Cl)CC2 | < 800
8 | CC(C)(C)CC(=O)N1CCC[C@@H]1CNC(=O)Nc1nc2c(s1)-c1c(c(-c3cncnc3)nn1-c1ccccc1Cl)CC2 | < 800
9 | Cn1cccc1CCNC(=O)Nc1nc2c(s1)-c1c(c(-c3cccnc3)nn1-c1ccccc1Cl)CC2 | < 800
10 | O=C(NCCc1nc(C2CC2)no1)Nc1nc2c(s1)-c1c(c(Nc3ccccn3)nn1-c1ccccc1)CC2 | < 800
11 | CC(C)(C)OC(=O)N1CCC[C@H]1CNC(=O)Nc1nc2c(s1)-c1c(c(-c3cccnc3)nn1-c1ccccc1Cl)CC2 | < 800
12 | O=C(Nc1nc2c(s1)-c1c(c(-c3cccnc3)nn1-c1ccccc1Cl)CC2)N1CCCC(c2nc3ccccc3[nH]2)C1 (stereo not given) | < 800
13 | CC1(C)NC(=O)N(Cc2ccc(CNC(=O)Nc3nc4c(s3)-c3c(c(-c5cccnc5)nn3-c3ccccc3Cl)CC4)cc2)C1=O | < 800
14 | O=C(NC[C@H]1CCCN1C(=O)Oc1ccccc1)Nc1nc2c(s1)-c1c(c(-c3cncnc3)nn1-c1ccccc1Cl)CC2 | < 800
15 | CC(C)(C)OC(=O)NC1CCN(C(=O)Nc2nc3c(s2)-c2c(c(-c4cccnc4)nn2-c2ccccc2Cl)CC3)C1 (stereo not given) | < 800
16 | CN(C)CCOc1cccc(CNC(=O)Nc2nc3c(s2)-c2c(c(-c4cncnc4)nn2-c2ccccc2Cl)CC3)c1 | < 800
17 | O=C(NCCNS(=O)(=O)c1ccccn1)Nc1nc2c(s1)-c1c(c(-c3ccccc3)nn1-c1ccccc1Cl)CC2 | < 800
18 | C[C@@H](C(=O)N1CC[C@H](CNC(=O)Nc2nc3c(s2)-c2c(c(-c4cncnc4)nn2-c2ccccc2Cl)CC3)C1)N(C)C(=O)OC(C)(C)C | < 800
19 | CC(C)(C)OC(=O)CCNC(=O)Nc1nc2c(s1)-c1c(c(C3CC3)nn1-c1ccccc1Cl)CC2 | < 800
20 | CCNC(=O)Nc1nc2c(s1)-c1c(c(-c3cccnc3)nn1-c1ccc(S(N)(=O)=O)cc1Cl)CC2 | < 800
21 | CC(C)(C)OC(=O)N1CCCC(CNC(=O)Nc2nc3c(s2)-c2c(c(-c4cncnc4)nn2-c2ccccc2Cl)CC3)C1 (stereo not given) | < 800
22 | CCc1cnc(CCNC(=O)Nc2nc3c(s2)-c2c(c(-c4cccnc4)nn2-c2ccccc2Cl)CC3)o1 | < 800
23 | NCCNC(=O)Nc1nc2c(s1)-c1c(c(-c3ccccc3)nn1-c1ccccc1Cl)CC2 | < 800
24 | O=C(NCCC(=O)N1CCOCC1)Nc1nc2c(s1)-c1c(c(-c3ccccc3)nn1-c1ccccc1Cl)CC2 | < 800
25 | NC(=O)Nc1nc2c(s1)-c1c(c(-c3cncnc3)nn1-c1ccccc1Cl)CC2 | < 800
26 | CCn1cnc(CCNC(=O)Nc2nc3c(s2)-c2c(c(-c4ccccc4)nn2-c2cccc(Cl)c2)CC3)c1 | < 800
27 | CN1CCC(n2nc(-c3cccnc3)c3c2-c2sc(NC(=O)NCCC(=O)N(C)C)nc2CC3)CC1 | < 800

Row | Compound | IC50 [nM]
28 | CCN(CC)CCNC(=O)Nc1nc2c(s1)-c1c(c(-c3cncnc3)nn1-c1ccccc1F)CC2 | < 800
29 | CC(=O)N(C)c1cccc(CNC(=O)Nc2nc3c(s2)-c2c(c(C4CC4)nn2-c2ccccc2Cl)CC3)c1 | < 800
30 | CC(=O)Nc1ccc(S(=O)(=O)NCCNC(=O)Nc2nc3c(s2)-c2c(c(-c4ccccc4)nn2-c2ccccc2Cl)CC3)cc1 | < 800
31 | CCc1cccc(CNC(=O)Nc2nc3c(s2)-c2c(c(-c4cccnc4)nn2C2CCN(C)CC2)CC3)c1 | < 800
32 | COC(=O)N1CC[C@H](CNC(=O)Nc2nc3c(s2)-c2c(c(-c4cncnc4)nn2-c2ccccc2Cl)CC3)C1 | < 800
33 | CNC(=O)Nc1nc2c(s1)-c1c(c(-c3ccccc3)nn1-c1cccc(Cl)c1)CC2 | < 800
34 | O=C(NCCc1ccccn1)Nc1nc2c(s1)-c1c(c(-c3cccnc3)nn1-c1ccccc1Cl)CC2 | < 800
35 | CC(C)(C)OC(=O)Nc1cccc(CNC(=O)Nc2nc3c(s2)-c2c(c(-c4cccnc4)nn2-c2ccccc2Cl)CC3)c1 | < 800
36 | CC(C)(C)OC(=O)Nc1cccc(CNC(=O)Nc2nc3c(s2)-c2c(c(-c4cncnc4)nn2-c2ccccc2Cl)CC3)c1 | < 800
37 | O=C(NCCn1ccnc1)Nc1nc2c(s1)-c1c(c(-c3cncnc3)nn1-c1ccccc1Cl)CC2 | < 800
38 | O=C(NCc1nnn[nH]1)Nc1nc2c(s1)-c1c(c(-c3cncnc3)nn1-c1ccccc1Cl)CC2 | < 800
39 | CCc1csc(CCNC(=O)Nc2nc3c(s2)-c2c(c(-c4ccccc4)nn2-c2cccc(Cl)c2)CC3)n1 | < 800
40 | O=C(Nc1nc2c(s1)-c1c(c(-c3cccnc3)nn1-c1ccccc1Cl)CC2)N1CCC2(CC1)C(=O)NCN2c1ccccc1 | < 800
41 | O=C(Nc1nc2c(s1)-c1c(c(-c3cccnc3)nn1-c1ccccc1Cl)CC2)N1CCC(NC(=O)C(F)(F)F)C1 (stereo not given) | < 800
42 | Cn1ccnc1CNC(=O)Nc1nc2c(s1)-c1c(c(-c3cccnc3)nn1-c1ccccc1Cl)CC2 | < 800
43 | CC(C)(C)OC(=O)CCNC(=O)Nc1nc2c(s1)-c1c(c(Nc3ccccn3)nn1-c1ccccc1)CC2 | < 800
44 | O=C(NCc1cc(C2CC2)n[nH]1)Nc1nc2c(s1)-c1c(c(-c3cncnc3)nn1-c1ccccc1Cl)CC2 | < 800
45 | O=C1CCC(NC(=O)Nc2nc3c(s2)-c2c(c(-c4cccnc4)nn2-c2ccccc2Cl)CC3)C(c2ccccc2)N1 (stereo not given) | < 800
46 | CN1CCC(n2nc(-c3cccnc3)c3c2-c2sc(NC(=O)NCc4cccc(N5CCNC5=O)c4)nc2CC3)CC1 | < 800
47 | CC(C)(C)OC(=O)N1CCC[C@@H]1CNC(=O)Nc1nc2c(s1)-c1c(c(-c3ccccc3)nn1-c1ccccc1Cl)CC2 | < 800
48 | CCc1csc(CCNC(=O)Nc2nc3c(s2)-c2c(c(-c4cccnc4)nn2-c2ccccc2Cl)CC3)n1 | < 800
49 | O=C(NCCNS(=O)(=O)C(F)(F)F)Nc1nc2c(s1)-c1c(c(-c3ccccc3)nn1-c1ccccc1Cl)CC2 | < 800
50 | CN(C)c1cccc(CNC(=O)Nc2nc3c(s2)-c2c(c(-c4cccnc4)nn2-c2ccccc2Cl)CC3)c1 | < 800
51 | O=C1CC[C@H](NC(=O)Nc2nc3c(s2)-c2c(c(-c4cccnc4)nn2-c2ccccc2Cl)CC3)CN1 | < 800
52 | O=C(NCCc1cccc(N2CCNC2=O)c1)Nc1nc2c(s1)-c1c(c(-c3cccnc3)nn1-c1ccccc1Cl)CC2 | < 800
53 | CCc1cnc(CCNC(=O)Nc2nc3c(s2)-c2c(c(-c4ccccc4)nn2-c2ccccc2Cl)CC3)o1 | < 800
54 | O=C(NCCc1nc(C2CC2)no1)Nc1nc2c(s1)-c1c(c(-c3ccccc3)nn1-c1cccc(Cl)c1)CC2 | < 800

Row | Compound | IC50 [nM]
55 | CN1CCC(n2nc(-c3cccnc3)c3c2-c2sc(NC(=O)NCc4cccc(C(N)=O)c4)nc2CC3)CC1 | < 800
56 | CC(C)c1nnc(CCNC(=O)Nc2nc3c(s2)-c2c(c(-c4cncnc4)nn2-c2ccccc2Cl)CC3)o1 | < 800
57 | CCc1cnc(CCNC(=O)Nc2nc3c(s2)-c2c(c(-c4cncnc4)nn2-c2ccccc2Cl)CC3)o1 | < 800
58 | O=C1CCC(CNC(=O)Nc2nc3c(s2)-c2c(c(-c4cncnc4)nn2-c2ccccc2Cl)CC3)N1 (stereo not given) | < 800
59 | CC(C)NC(=O)Nc1nc2c(s1)-c1c(c(-c3cccnc3)nn1-c1ccccc1Cl)CC2 | < 800
60 | C[C@@H](NC(=O)Nc1nc2c(s1)-c1c(c(-c3ccccc3)nn1-c1ccccc1Cl)CC2)C(=O)N(C)C | < 800
61 | CN(C)C(=O)CCNC(=O)Nc1nc2c(s1)-c1c(c(C3CC3)nn1-c1ccccc1Cl)CC2 | < 800
62 | CC(C)(C)OC(=O)CCNC(=O)Nc1nc2c(s1)-c1c(c(-c3cccnc3)nn1C1CCN(C3CCCC3)CC1)CC2 | < 800
63 | CC(=O)Nc1cccc(CNC(=O)Nc2nc3c(s2)-c2c(c(-c4cncnc4)nn2-c2ccccc2Cl)CC3)c1 | < 800
64 | O=C(NCCNS(=O)(=O)c1cccnc1)Nc1nc2c(s1)-c1c(c(-c3ccccc3)nn1-c1ccccc1Cl)CC2 | < 800
65 | O=C(Nc1nc2c(s1)-c1c(c(-c3cccnc3)nn1-c1ccccc1Cl)CC2)N1CCCCC1c1nc2ccccc2[nH]1 (stereo not given) | < 800
66 | CN(Cc1cccc(CNC(=O)Nc2nc3c(s2)-c2c(c(-c4cccnc4)nn2-c2ccccc2Cl)CC3)c1)C(=O)OC(C)(C)C | < 800
67 | CN(C)C(=O)CNC(=O)Nc1nc2c(s1)-c1c(c(-c3cccnc3)nn1C1CCN(C3CCCC3)CC1)CC2 | < 800
68 | CCN1CCC2(CCN(C(=O)Nc3nc4c(s3)-c3c(c(-c5cccnc5)nn3-c3ccccc3Cl)CC4)C2)C1 (stereo not given) | < 800
69 | O=C(NCCCn1ccnc1)Nc1nc2c(s1)-c1c(c(-c3cncnc3)nn1-c1ccccc1Cl)CC2 | < 800
70 | O=C(O)CC1(CNC(=O)Nc2nc3c(s2)-c2c(c(-c4cccnc4)nn2-c2ccccc2Cl)CC3)CCCCC1 | < 800
71 | CC(C)(C)OC(=O)N1CCCC(NC(=O)Nc2nc3c(s2)-c2c(c(-c4cncnc4)nn2-c2ccccc2Cl)CC3)C1 (stereo not given) | < 800
72 | O=C(NCc1cccc(N2CCNC2=O)c1)Nc1nc2c(s1)-c1c(c(Nc3ccccn3)nn1-c1ccccc1)CC2 | < 800
73 | CC(C)c1cnc(CCNC(=O)Nc2nc3c(s2)-c2c(c(-c4cncnc4)nn2-c2ccccc2Cl)CC3)o1 | < 800
74 | CC(C)c1cnc(CCNC(=O)Nc2nc3c(s2)-c2c(c(-c4cccnc4)nn2-c2ccccc2Cl)CC3)o1 | < 800
75 | O=C(NCc1cccc(N2CCNC2=O)c1)Nc1nc2c(s1)-c1c(c(C3CC3)nn1-c1ccccc1Cl)CC2 | < 800
76 | O=C(NCc1ccccc1N1CCCCC1)Nc1nc2c(s1)-c1c(c(-c3cccnc3)nn1-c1ccccc1Cl)CC2 | < 800
77 | CN1CCC(n2nc(-c3cccnc3)c3c2-c2sc(NC(=O)NCc4cccc(NC(N)=O)c4)nc2CC3)CC1 | < 800
78 | O=C(NCCCN1CCNC1=O)Nc1nc2c(s1)-c1c(c(-c3cccnc3)nn1-c1ccccc1Cl)CC2 | < 800
79 | CCN(CC)C(=O)N1CCC[C@@H]1CNC(=O)Nc1nc2c(s1)-c1c(c(-c3cncnc3)nn1-c1ccccc1Cl)CC2 | < 800
80 | CC(=O)N(C)c1cccc(CNC(=O)Nc2nc3c(s2)-c2c(c(-c4cccnc4)nn2C2CCN(C)CC2)CC3)c1 | < 800
